Measurements reported in ChEMBL document CHEMBL4418295, “Method for identifying modulators of GPCR GPR1 function” (2014).

Molecular target: T1, Chemerin-like receptor 2 (Homo sapiens, UniProt P46091)
T1 sequence (P46091 whole entry): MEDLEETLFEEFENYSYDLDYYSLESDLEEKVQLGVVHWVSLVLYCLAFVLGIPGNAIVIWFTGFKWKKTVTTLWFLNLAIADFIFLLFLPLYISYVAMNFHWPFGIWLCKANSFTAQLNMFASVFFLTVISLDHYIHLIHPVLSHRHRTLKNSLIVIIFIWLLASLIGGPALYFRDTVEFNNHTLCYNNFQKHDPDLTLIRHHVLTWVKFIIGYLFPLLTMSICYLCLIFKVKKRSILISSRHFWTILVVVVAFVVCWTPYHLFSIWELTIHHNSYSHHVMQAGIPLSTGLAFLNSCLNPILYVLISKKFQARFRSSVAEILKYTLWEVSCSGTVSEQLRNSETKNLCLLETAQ
Assay: Agonist activity at recombinant human GPR1 expressed in CHOK1 PathHunter cells assessed as beta-arrestin 2 recruitment incubated for 90 mins by luminescence assay
Type: cell-based

EC50: 92.8 nM
Structure (SMILES): CC[C@H](C)[C@H](NC(=O)[C@H](CCC(=O)O)NC(=O)[C@@H](CO)NC(=O)[C@@H](NC(=O)[C@H](CC(C)C)NC(=O)[C@H](CC(C)C)NC(=O)[C@H](CC(C)C)NC(=O)[C@H](CC(C)C)NC(=O)[C@H](CS)NC(=O)[C@H](CO)NC(=O)[C@H](Cc1ccccc1)NC(=O)CNC(=O)[C@H](CCCNC(=N)N)NC(=O)[C@@H]1CCCN1C(=O)[C@H](C)NC(=O)[C@@H](N)CCSC)[C@@H](C)O)C(=O)N[C@@H](CC(=O)O)C(=O)N[C@@H](CC(C)C)C(=O)N1CCC[C@H]1C(=O)N[C@H](C(=O)N[C@@H](CCCCN)C(=O)N[C@@H](CCCNC(=N)N)C(=O)N[C@@H](CCCNC(=N)N)C(=O)N[C@@H](C)C(=O)O)C(C)C
